How the values were obtained:
[1] = Test of blood kinetics in the rats; assay type: in vivo; conditions: rat, plasma, 2 mg/kg, fasted Wistar male rats, oral single dose of mixed solution of five compounds, each compound 2 mg/5 mL/kg, n=5, LC-MS
Procedure: Ten milligrams of a compound of the present invention was properly converted to a sodium salt with the same amount of sodium hydroxide, where necessary, and each was dissolved in 5 mL of water. Five compounds each among these aqueous solutions of the compounds of the present inventions were mixed, to prepare a mixed solution containing 0.4 mg/mL each of each compound. Six-week old Wistar SPF male rats that were fasted were orally administered with the mixed solution in a single dose using a gavage tube (each compound 2 mg/5 mL/kg, n=5). At time points of 0.25, 0.5, 1, 2, 4, and 8 hours after the administration, about 150 μL of blood was collected using a heparin-added capillary tube from veins of rat tails. The capillary tubes were centrifuged to collect the plasma. The plasma sample was deprotenized and the supernatant was diluted to prepare each of measurement sample solutions. The concentration of the compound of the present invention in each of measurement sample solutions was quantified using LC-MS, and Cmax (maximum concentration in plasma) and AUC (area under the curve for concentration in blood, time 0 to infinite (∞) hours) of the compounds of the present invention were calculated.

ddY-type mice = experiment: Analgesic efficacy test (1): acetic acid writhing test (nociceptive pain model animal); assay type: in vivo; conditions: Mus musculus, 25 min; writhing number, male ddY mice, oral single dose 3 mg/kg, acetic acid i.p. 25 min after administration, mean ± standard error; read-out: Percent Suppression (%)
In short: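 Male 4-week-old ddY mice (8/group) received a single oral dose in 0.5% CMC-Na; 25 min later, 0.7% acetic acid given i.p. at 10 mL/kg. Writhes counted over 10 min starting 5 min after injection; suppression rate per animal versus vehicle, Dunnett's test, P<0.05.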

O=C(C=Cc1ccccc1F)N[C@@H](Cc1c[nH]c2ccccc12)C(=O)O [Compound 3, N^α-[3-(2-Fluorophenyl)acryloyl]-L-tryptophan]
melting point: 104 to 105 °C | AUC(0-inf) ([1]; read-out: AUC0-∞ (area under the curve for concentration in blood, time 0 to infinite hours)): 26200 ng·h/mL | Cmax ([1]; read-out: Cmax (maximum concentration in plasma)): 5800 ng/mL | inhibition in vivo at 3 mg/kg (ddY-type mice): 36.9 ± 10.6%

— patent US9150510B2, “Amino acid derivative” (NIPPON ZOKI PHARMACEUTICAL CO., LTD., priority 2008, dated 2015)
